Patent US20100111965A1, “COMBINATION THERAPY” (FUSION ANTIBODIES LIMITED, priority 2006, published 2010)
“And” between values parts separate entries of the source, which are not always exact repeats. Equal values may be shown once.

Tests used:
[1] = tested on: MDA-MB231 breast carcinoma cell line; assay: RT-PCR of AREG mRNA in MDA-MB231 cells after chemotherapy; format: cell-based, human; settings: IC50 dose, 48 hours
Procedure: (§1) FIG. 6 illustrates AREG upregulation following chemotherapeutic challenge in A) HT29, B) HCT116 and C) MDA-MB231 cells. Cells were treated with/without chemotherapy for 48 hours. RT-PCR was performed with 1 μg of total RNA using primer pairs specific for the human AREG gene or GAPDH. The PCR products were separated on 1.5% agarose gel electrophoresis and visualized by ethidium bromide staining.
For Example 2, Total RNA was isolated from cells following the RNA STAT-60 manufacturer's protocol (Biogenesis, Poole, U.K.). RT-PCR was performed with 1 μg of total cell RNA using a Promega ImProm-II™ Reverse Transcription System (Promega, Southhampton, UK). PCR was performed using primer pairs specific for human AREG (Forward 5′-[…]-3′(SEQ ID No:19), Reverse 5′-[…]-3′ (SEQ ID No:20)), human HB-EGF (Forward 5′-[…]-3′(SEQ ID No:21), Reverse 5′-[…]-3′(SEQ ID No:22)), human GAPDH as a control (Forward 5′[…]-3′(SEQ ID No:23), Reverse 5′ […]-3′(SEQ ID NO:24)) and human Beta-actin as a control (Forward 5′-[…]-3′(SEQ ID No:25), Reverse 5′-[…]-3′(SEQ ID No:26)).
The PCR products were separated on 1.5% agarose gel and visualized by ethidium bromide staining.

[2] = tested on: HCT116+/+ cells (In Vivo); assay: Microarray analysis of EGF-family mRNA in HCT116 xenograft tumours after chemotherapy; set-up: species or system human; settings: for EGF (Epidermal Growth factor) fold change, microarray: drug treated against untreated control
Procedure: 6-8 week old female SCID mice were implanted with 2×10^6 HCT116+/+ human colorectal adenocarcinoma cells into each flank. HCT116 cells in a log phase of growth were harvested, washed in PBS and resuspended in HBSS. They were mixed with equal volumes of matrigel to give a final concentration of 5×10^6 cells/ml. Mice were randomly separated into treatment groups on day 5 after implantation and treated with different doses of chemotherapy. […] All drugs were administered through a bolus injection. Animals were sacrificed at various time points and tumours were removed for analysis
Approximately 10 μg total RNA was isolated from tumour cells and was used as the starting material for preparation of probes. The microarray analysis was carried using an Affymetrix U133 plus 2.0 GeneChip®. Probes were prepared as per the manufacturers recommendations.
After RNA extraction, samples were reverse transcribed into cDNA which was then purified on a column prior to labelling. The probes were then amplified and labelled using Oligo(dT)-primed in vitro transcription generating high-yield, biotinylated targets from the 3′-end. […] For the next stage the fragmented cRNA was hybridised to the array for 16 hours at 45° C. Following this the array was washed and stained with streptavidin-phycoerythrin (SAPE) using a fluidics station and scanned using a GeneChip® Scanner 3000. Stained images were then analysed.
Initially the data was scaled using the Affymetrix® GCOS (Genechip® Operating System) software, to assess quality metrics. The data was then normalized against a control sample. After normalisation the data was filtered removing all genes where the noise level obscured signal and were fold change was […] 2-fold. Finally a confidence filter where the t-test p-value were used to filter the genes to derive lists of statistically robust data.
Each treatment type and timepoint was carried out in triplicate and statistics and filtering were applied to the whole data set from each condition.
A xenograft study was set up to examine the genetic response to 2 different chemotherapeutic drugs 24 and 48 hours after treatment. Each mouse was implanted with equal volumes of HCT116 cells and each condition was performed in triplicate.
RNA isolated from tumours in each of the 12 mice was subjected to microarray analysis to measure mRNA expression levels. Fold change values for drug treated against untreated control is presented.

H460 lung cancer cells = assay: RT-PCR of AREG RNA in H460 lung cancer cells after chemotherapy; format: cell-based; settings: 48 hour treatment
Procedure: FIG. 5 illustrates analysis of AREG and beta actin RNA expression in H460 lung cancer cells with/without either a 48 hour CPT11 treatment or 5-Fu treatment. RNA levels were analyzed following 35 cycle of PCR to determine relative differences in expression between treated and untreated samples.
(§2) Cells in a log phase of growth were seeded into T75 flask at ˜20% confluence and incubated overnight to allow adherence to the plate. […] Chemotherapy was substituted with saline in control flasks. After different time exposure to chemotherapy the cells were harvested, washed 3 times in PBS and total RNA was isolated using the RNA TAT-60 reagent according to the manufacturer instructions.
(§3) Reverse transcription was performed with 2.5 μg of RNA using a High Capacity cDNA Archive kit (Applied Biosystem) according to the instruction of the manufacturer.
(§4) Semi quantitative RT-PCR was performed using a PTC 225 Gradient Cycler (MJ Research Incorporated. The PCR mixture, in a final volume of 25 μL, contains 12.5 μL of 2× Biomix (Bioline, UK), 2 μL of primers (10 μmol/L), 1 μL of cDNA and 9.5 μL of dH2O). PCR conditions were initial denaturation step of 95 C for 10 minutes, followed by 35 cycles of 95° C. for 30 sec for denaturation; as annealing step 55° C. for 30 sec; and extension at 72° C. for 90 sec, with a final extension of 72° C. for 10 minutes. […]

RKO +/+ = assay: Semi quantitative RT-PCR of AREG RNA in RKO cells after chemotherapy; format: cell-based, human; settings: 48 h after treatment, 7.5 μM
Procedure: FIG. 1A illustrates analysis of AREG and beta actin RNA expression in RKO +/+ with/without either a 48 hour CPT11 treatment or 5-Fu treatment. RNA levels were analyzed following 35 cycle of PCR to determine relative differences in expression between treated and untreated samples;
as §2, §3, §4

HCT116 = assay: RT-PCR of AREG RNA in HCT116 cells after chemotherapy; format: cell-based, human; settings: 48 h after treatment, 7.5 μM
Procedure: FIG. 1B illustrates analysis of AREG and beta actin RNA expression in HCT116 +/+ with/without a 48 hour CPT11 treatment. RNA levels were analyzed following 35 cycles of PCR to determine relative differences in expression between treated and untreated samples;
as §1
as §2, with “instructions. […]” for “instructions.”
Semi quantitative RT-PCR was performed using a PTC 225 Gradient Cycler (MJ Research Incorporated. The PCR mixture, in a final volume of 25 μL, contains 12.5 μL of 2× Biomix (Bioline, UK), 2 μL of primers (10 μmol/L), 1 μL of cDNA and 9.5 μL of dH2O). […]

[3] = HCT116+/+ xenograft, 70 mg/kg bolus, 24 h, vs untreated control
[4] = HCT116+/+ xenograft, 70 mg/kg bolus, 24 h, vs untreated control, 70 mg/kg
[5] = HCT116 xenograft, treated by 5-FU, time not stated

## O=c1[nH]cc(F)c(=O)[nH]1 [5-FU, 5-Fluorouracil]
[1]
  AREG mRNA expression (RT-PCR): up-regulation
[2]; HCT116+/+ xenograft, 70 mg/kg bolus, 24 h
  EGF (Epidermal Growth factor) fold change, microarray: −2.4 fold
[2]; [3]
  NRG3 fold change, microarray: −2.1 fold
  NRG4 fold change, microarray: −1.1 fold
[2]; [4]
  HB-EGF (Heparin-Binding EGF-like growth factor) fold change, microarray: 1.6 fold and 3.1 fold
  TGF alpha (Transforming Growth factor alpha) fold change, microarray: 1.3 fold and 1.8 fold
[2]; HCT116+/+ xenograft, 70 mg/kg bolus, 48 h
  EGF (Epidermal Growth factor) fold change, microarray: −3.8 fold
[2]; HCT116+/+ xenograft, 70 mg/kg bolus, 48 h, vs untreated control
  NRG4 fold change, microarray: −1.8 fold
[2]; HCT116 xenograft, 70 mg/kg, after 48 hours
  fold change values for AREG mRNA expression, treated against untreated controls: 2.1 fold
[2]; [5]
  HB-EGF regulation in micro-array analysis: up-regulation
  TGF regulation in micro-array analysis: up-regulation
H460 lung cancer cells
  AREG RNA expression (RT-PCR, 35 cycles): enhanced expression of AREG
RKO +/+
  AREG RNA expression (RT-PCR): upregulation
HCT116
  AREG RNA expression (RT-PCR): upregulation
